Measurements published in patent US20210190775A1, “COMPOSITIONS AND METHODS FOR TAGGING AND DETECTING NUCLEIC ACIDS” (Nanoco Technologies Ltd., priority 2019, published 2021).

What was measured:
[1] = test system: A431 human squamous cell carcinoma; assay: Labelling of nuclear and cytoplasmic DNA or RNA in live cells; format: cell-based; conditions: conjugate 50 μg/mL or Hoechst 33342 0.2 μg/mL, 15h
[2] = test system: DNA threads mounted on a glass slide; assay: Detection of DNA mounted on a glass slide by fluorescence microscopy; format: binding; conditions: DNA 0.3 μg/mL, final dye concentration 0.4 mg/mL, 50× objective, DAPI filter cube
Procedure: The DNA binding and enhanced detection ability were also observed using trace amounts of DNA mounted on a glass slide. In this experiment, a DNA solution was prepared in DI water at 0.3 μg/mL and was mixed with the QD-fluorescent dye conjugate nanoparticles (Ex. 1) or with the Hoechst 33342 only (control experiment) at a final dye concentration of 0.4 mg/mL. A 3 μL solution of each composition was mounted on a slide, smeared and let to dry. The slide was then observed under a fluorescence microscope (Olympus BX51) using 50× objective and a DAPI filter cube (UMWU2) and equipped with an Osram HBO50W/AC L1 Short arc mercury lamp as an excitation source. […] All the images were taken using the same microscopy settings. FIG. 6 indicates an enhanced ability to detect DNA on a glass slide (zoomed in to show DNA strands covered with Hoechst-QDs).

Compound: CCOc1ccc(-c2nc3cc(-c4nc5cc(N6CCN(C)CC6)ccc5[nH]4)ccc3[nH]2)cc1.Cl.Cl.Cl [Hoechst 33342, 2′-(4-ethoxyphenyl)-5-(4-methyl-1-piperazinyl)-2,5′-bi-1H-benzimidazole trihydrochloride]
- labelling of cells (fluorescence microscopy) [1]: the nuclei were stained but without the ability to detect cell-cell communication
- detection of DNA threads on glass slide [2]: almost no signal was observed
